One series addresses T1, FGFR3 (Homo sapiens, UniProt P22607).
T1 construct: purchased Upstate
Nature of the series: FGFR3 in vitro kinase inhibitory activity assay (TRF). It counts as biochemical. To be noted: 8 μM ATP, 3 hours; read-out: FGFR3 IC50(μM) or % I.

The target in a further series is T2, VEGFR2 (Homo sapiens, UniProt P35968).
T2 construct: purchased Upstate
In words: VEGFR2 in vitro kinase inhibitory activity assay (TRF). To be noted: 0.5 μM ATP, 1 hour; read-out: VEGFR2 IC50(μM) or % I. It counts as biochemical.

Series [1] has as its system parental wild-type Ba/F3 cells. Nature of the series: Ba/F3 (WT) cell proliferation assay (Alamar Blue). It counts as cell-based. To be noted: BaF3, 72 hours, read-out: BaF3 WT prolif; for IC50: with mouse IL-3. The essentials:
(§1)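 Ba/F3-TEL-FGFR3 cells (5×10^3/well, G418) and parental Ba/F3 (2.5×10^3/well, 2 ng/ml mouse IL-3) in RPMI/10% FBS, plated overnight, then compound for 72 h at 0.1% DMSO final. Alamar Blue 4-6 h, fluorescence 535/590 nm; IC50 where inhibition high.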

The target in another series is T3, Ba/F3-TEL-FGFR3 cells (Homo sapiens, UniProt P22607).
T3 construct: fused on or other part: P41212 (Transcription factor ETV6)
T3 sequence (P22607 whole entry, change not shown, the tested form may be a part): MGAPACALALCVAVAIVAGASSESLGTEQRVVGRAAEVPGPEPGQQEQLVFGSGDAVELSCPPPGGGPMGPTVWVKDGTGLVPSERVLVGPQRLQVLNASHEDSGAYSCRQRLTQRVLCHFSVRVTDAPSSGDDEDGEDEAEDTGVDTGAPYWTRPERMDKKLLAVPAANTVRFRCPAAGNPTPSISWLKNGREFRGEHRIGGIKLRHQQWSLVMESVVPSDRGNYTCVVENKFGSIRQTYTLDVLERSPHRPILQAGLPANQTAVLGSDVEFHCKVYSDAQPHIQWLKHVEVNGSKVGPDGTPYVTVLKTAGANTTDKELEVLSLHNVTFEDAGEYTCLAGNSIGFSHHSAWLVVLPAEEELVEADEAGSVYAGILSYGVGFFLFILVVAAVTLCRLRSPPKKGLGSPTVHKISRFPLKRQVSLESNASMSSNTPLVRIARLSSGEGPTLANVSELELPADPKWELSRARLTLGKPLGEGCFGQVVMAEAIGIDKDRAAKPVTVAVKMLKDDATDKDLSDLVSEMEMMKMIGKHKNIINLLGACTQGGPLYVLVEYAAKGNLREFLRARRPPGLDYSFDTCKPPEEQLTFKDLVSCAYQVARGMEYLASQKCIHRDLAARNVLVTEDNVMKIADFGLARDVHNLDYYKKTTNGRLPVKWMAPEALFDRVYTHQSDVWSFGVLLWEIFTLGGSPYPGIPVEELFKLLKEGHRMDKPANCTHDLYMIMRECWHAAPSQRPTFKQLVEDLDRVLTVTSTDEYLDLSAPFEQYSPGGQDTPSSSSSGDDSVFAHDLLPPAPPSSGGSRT
In words: Ba/F3-TEL-FGFR3 cell proliferation assay (Alamar Blue). It counts as cell-based. The following applies: 72 hours; for GI50: read-out: BaF3-TEL-FGFR3 prolif. The essentials:
as §1
In general terms: Alamar Blue is a resazurin reagent that responds to reducing activity.

T1 sequence (P22607 23-806): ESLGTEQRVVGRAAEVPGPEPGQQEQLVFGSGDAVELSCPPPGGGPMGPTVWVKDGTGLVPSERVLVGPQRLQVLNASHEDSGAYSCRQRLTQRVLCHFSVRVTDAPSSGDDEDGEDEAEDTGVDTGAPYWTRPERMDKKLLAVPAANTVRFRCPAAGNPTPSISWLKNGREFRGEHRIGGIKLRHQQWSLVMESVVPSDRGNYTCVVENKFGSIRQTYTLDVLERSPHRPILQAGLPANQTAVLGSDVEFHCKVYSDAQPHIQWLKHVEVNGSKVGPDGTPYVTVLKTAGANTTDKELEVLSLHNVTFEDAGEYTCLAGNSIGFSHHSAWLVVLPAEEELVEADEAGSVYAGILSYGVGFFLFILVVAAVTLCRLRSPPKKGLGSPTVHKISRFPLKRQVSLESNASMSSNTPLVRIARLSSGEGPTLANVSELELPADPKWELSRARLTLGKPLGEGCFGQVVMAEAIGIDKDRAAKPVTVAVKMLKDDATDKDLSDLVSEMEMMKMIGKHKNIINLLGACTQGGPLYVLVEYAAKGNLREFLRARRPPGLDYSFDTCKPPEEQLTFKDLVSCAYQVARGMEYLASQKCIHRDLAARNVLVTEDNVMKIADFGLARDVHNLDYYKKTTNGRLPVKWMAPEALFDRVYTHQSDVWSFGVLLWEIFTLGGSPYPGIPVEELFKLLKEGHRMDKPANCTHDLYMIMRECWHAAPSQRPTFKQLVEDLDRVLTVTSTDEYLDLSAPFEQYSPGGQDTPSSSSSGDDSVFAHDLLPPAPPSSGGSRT
T2 sequence (P35968 20-1356): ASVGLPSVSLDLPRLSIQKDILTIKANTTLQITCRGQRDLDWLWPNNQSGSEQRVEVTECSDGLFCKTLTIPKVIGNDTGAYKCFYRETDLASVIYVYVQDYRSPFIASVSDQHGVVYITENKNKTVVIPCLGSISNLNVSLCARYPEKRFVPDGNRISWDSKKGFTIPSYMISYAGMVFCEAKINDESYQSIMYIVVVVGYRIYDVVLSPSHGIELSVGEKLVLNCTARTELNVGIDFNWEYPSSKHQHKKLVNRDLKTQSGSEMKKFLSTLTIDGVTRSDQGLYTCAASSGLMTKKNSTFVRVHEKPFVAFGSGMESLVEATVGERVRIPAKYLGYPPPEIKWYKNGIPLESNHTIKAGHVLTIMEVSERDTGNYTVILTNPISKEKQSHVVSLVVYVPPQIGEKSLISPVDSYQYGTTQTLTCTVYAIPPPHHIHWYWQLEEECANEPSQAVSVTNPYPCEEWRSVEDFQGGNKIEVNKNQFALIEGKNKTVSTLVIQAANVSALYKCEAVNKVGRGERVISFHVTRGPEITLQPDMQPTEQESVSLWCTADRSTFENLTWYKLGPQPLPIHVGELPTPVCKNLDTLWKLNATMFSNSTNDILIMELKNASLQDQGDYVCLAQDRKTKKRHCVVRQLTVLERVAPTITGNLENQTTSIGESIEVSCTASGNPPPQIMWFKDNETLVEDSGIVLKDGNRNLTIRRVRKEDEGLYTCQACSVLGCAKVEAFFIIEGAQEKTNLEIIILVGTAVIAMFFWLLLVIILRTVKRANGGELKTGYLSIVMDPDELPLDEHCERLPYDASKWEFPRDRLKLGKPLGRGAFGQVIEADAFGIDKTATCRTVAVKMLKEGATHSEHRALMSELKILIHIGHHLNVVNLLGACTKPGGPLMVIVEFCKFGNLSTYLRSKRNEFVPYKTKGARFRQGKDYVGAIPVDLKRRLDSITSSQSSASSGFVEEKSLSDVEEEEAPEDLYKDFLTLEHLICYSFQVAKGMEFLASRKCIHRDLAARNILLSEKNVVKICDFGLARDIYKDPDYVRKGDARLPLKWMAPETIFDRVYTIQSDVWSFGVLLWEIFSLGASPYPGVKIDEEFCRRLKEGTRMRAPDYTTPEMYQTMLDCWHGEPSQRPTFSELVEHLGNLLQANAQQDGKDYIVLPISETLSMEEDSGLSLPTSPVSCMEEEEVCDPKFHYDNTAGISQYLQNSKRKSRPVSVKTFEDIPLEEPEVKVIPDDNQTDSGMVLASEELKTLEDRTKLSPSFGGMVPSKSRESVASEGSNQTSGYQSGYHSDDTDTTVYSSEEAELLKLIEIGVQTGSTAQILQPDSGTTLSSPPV

In the case of `CS(=O)(=O)CCNCCON=Cc1ccn2c(-c3cccc(NC(=O)NCC(F)(F)F)c3)cnc2c1` [Compound 1-52, 1-[3-(7-{[2-(2-Methanesulfonyl-ethylamino)-ethoxyimino]-methyl}-imidazo[1,2-a]pyridin-3-yl)-phenyl]-3-(2,2,2-trifluoro-ethyl)-urea], the IC50 at FGFR3 is 0.026 µM; at VEGFR2, 0.73 µM. Besides, the inhibition at 10 µM in series [1] (Mus musculus) worked out at 25%. On Ba/F3-TEL-FGFR3 cells, the GI50 is 4.9 µM.
Consider `COCCNCCON=Cc1ccn2c(-c3cccc(NC(=O)NCC(F)(F)F)c3)cnc2c1` [Compound 1-53, 1-[3-(7-{[2-(2-Methoxy-ethylamino)-ethoxyimino]-methyl}-imidazo[1,2-a]pyridin-3-yl)-phenyl]-3-(2,2,2-trifluoro-ethyl)-urea], for which the IC50 on FGFR3 is 0.035 µM; on VEGFR2, 0.81 µM; in series [1], 13 µM. Further, the GI50 at Ba/F3-TEL-FGFR3 cells was found to be 0.48 µM.
In the same order, the values of `O=C(NCC(F)(F)F)Nc1cccc(-c2cnc3cc(C=NOCCO)ccn23)c1` [Compound 1-54, 1-(3-{7-[(2-Hydroxy-ethoxyimino)-methyl]-imidazo[1,2-a]pyridin-3-yl}-phenyl)-3-(2,2,2-trifluoro-ethyl)-urea] are 0.021 µM, 0.62 µM, 0.51 µM and 0.5 µM.
Take `O=C(NCC(F)(F)F)Nc1cccc(-c2cnc3cc(C=NOCc4cccnc4)ccn23)c1` [Compound 1-55, 1-(3-{7-[(Pyridin-3-ylmethoxyimino)-methyl]-imidazo[1,2-a]pyridin-3-yl}-phenyl)-3-(2,2,2-trifluoro-ethyl)-urea]: the IC50 at FGFR3 was 0.0077 µM; on VEGFR2 it was 0.38 µM. Further, the inhibition at 3 µM in series [1] (Mus musculus) was 51%. Besides, the GI50 on Ba/F3-TEL-FGFR3 cells was 0.14 µM.
In the case of `CN1CCN(CCCON=Cc2ccn3c(-c4cccc(NC(=O)NCC(F)(F)F)c4)cnc3c2)CC1` [Compound 1-56, 1-[3-(7-{[3-(4-Methyl-piperazin-1-yl)-propoxyimino]-methyl}-imidazo[1,2-a]pyridin-3-yl)-phenyl]-3-(2,2,2-trifluoro-ethyl)-urea], the IC50 at FGFR3 was 0.019 µM; on VEGFR2, 0.38 µM; in series [1] it was 3 µM. The GI50 at Ba/F3-TEL-FGFR3 cells stood at 0.32 µM.
On to `CN(C)CCON=Cc1ccn2c(-c3cccc(NC(=O)NCC(F)(F)F)c3)cnc2c1` [Compound 1-57, 1-(3-{7-[(2-Dimethylamino-ethoxyimino)-methyl]-imidazo[1,2-a]pyridin-3-yl}-phenyl)-3-(2,2,2-trifluoro-ethyl)-urea], for which the IC50 at FGFR3 stood at 0.029 µM; on VEGFR2 it was 0.47 µM. Moreover, in series [1] (Mus musculus), the inhibition at 3 µM was 30%. In addition, on Ba/F3-TEL-FGFR3 cells, the GI50 came to 0.25 µM.
Turning to `CN(CCO)CCON=Cc1ccn2c(-c3cccc(NC(=O)NCC(F)(F)F)c3)cnc2c1` [Compound 1-58, 1-{3-[7-({2-[(2-Hydroxy-ethyl)-methyl-amino]-ethoxyimino}-methyl)-imidazo[1,2-a]pyridin-3-yl]-phenyl}-3-(2,2,2-trifluoro-ethyl)-urea], the IC50 at FGFR3 was 0.029 µM; on VEGFR2 it was 0.34 µM. Also, the inhibition at 10 µM in series [1] (Mus musculus) stood at 55%. Besides, on Ba/F3-TEL-FGFR3 cells, the GI50 is 0.78 µM.
In the case of `O=C(NCC(F)(F)F)Nc1cccc(-c2cnc3cc(C=NOCCC4CCNCC4)ccn23)c1` [Compound 1-59, 1-(3-{7-[(2-Piperidin-4-yl-ethoxyimino)-methyl]-imidazo[1,2-a]pyridin-3-yl}-phenyl)-3-(2,2,2-trifluoro-ethyl)-urea], the IC50 on FGFR3 stood at 0.024 µM; on VEGFR2, 0.33 µM. In addition, the inhibition at 10 µM in series [1] (Mus musculus) is 11%. Moreover, at Ba/F3-TEL-FGFR3 cells (% at 3.00 μM), the “BaF3-TEL-FGFR3 prolif (μM)” value amounted to 42.0% at.
For `N#CCCN1CCN(CCCON=Cc2ccn3c(-c4cccc(NC(=O)NCC(F)(F)F)c4)cnc3c2)CC1` [Compound 1-60, 1-{3-[7-({3-[4-(2-Cyano-ethyl)-piperazin-1-yl]-propoxyimino}-methyl)-imidazo[1,2-a]pyridin-3-yl]-phenyl}-3-(2,2,2-trifluoro-ethyl)-urea], the values for the IC50 on FGFR3 and on VEGFR2 were 0.022 µM and 0.56 µM, respectively. Besides, in series [1] (Mus musculus, % at 1.00 μM), the inhibition at 1 µM was 0%. For the same compound, the “BaF3-TEL-FGFR3 prolif (μM)” value at Ba/F3-TEL-FGFR3 cells (% at 1.00 μM) was 85.0% at.
For `O=C(NCC(F)(F)F)Nc1cccc(-c2cnc3cc(C=NOCC(O)CNC4CC4)ccn23)c1` (centres unmarked) [Compound 1-61, 1-(3-{7-[(3-Cyclopropylamino-2-hydroxy-propoxyimino)-methyl]-imidazo[1,2-a]pyridin-3-yl}-phenyl)-3-(2,2,2-trifluoro-ethyl)-urea], the IC50 at FGFR3 was determined as 0.029 µM; on VEGFR2, 0.44 µM. Also, the inhibition at 3 µM in series [1] (Mus musculus) amounted to 30%. For the same compound, the GI50 on Ba/F3-TEL-FGFR3 cells worked out at 0.93 µM.
Take `C/C(=N\OCCO)c1ccn2c(-c3cccc(NC(=O)NCC(F)(F)F)c3)cnc2c1` [Compound 1-62, 1-[3-(7-{1-2-Hydroxy-ethoxyimino-ethyl}-imidazo[1,2-a]pyridin-3-yl)-phenyl]-3-(2,2,2-trifluoro-ethyl)-urea]: the values for the IC50 on FGFR3 and on VEGFR2 were 0.0035 µM and 0.051 µM, respectively. In addition, in series [1] (Mus musculus), the inhibition at 10 µM was found to be 45%. Moreover, the GI50 at Ba/F3-TEL-FGFR3 cells was 0.11 µM.
Turning to `CN(C)S(=O)(=O)N1CCN(CCCO/N=C/c2ccn3c(-c4cccc(NC(=O)NCC(F)(F)F)c4)cnc3c2)CC1` [Compound 1-63, 4-{3-[1-(3-{3-[3-(2,2,2-Trifluoro-ethyl)-ureido]-phenyl}-imidazo[1,2-a]pyridin-7-yl)-meth-(E)-ylideneaminooxy]-propyl}-piperazine-1-sulfonic acid dimethylamide], the IC50 amounted to 0.016 µM at FGFR3 and 0.5 µM on VEGFR2. In addition, the inhibition at 3 µM in series [1] (Mus musculus) was 45%. Further, at Ba/F3-TEL-FGFR3 cells, the GI50 worked out at 0.31 µM.
Regarding `CC(C)Oc1cc(NC(=O)NCC(F)(F)F)cc(-c2cnc3cc(/C(=N/O)C4CC4)ccn23)c1` [Compound 1-66, 1-[3-(7-{Cyclopropyl-[(E)-hydroxyimino]-methyl}-imidazo[1,2-a]pyridin-3-yl)-5-isopropoxy-phenyl]-3-(2,2,2-trifluoro-ethyl)-urea], the melting point – broadly, the temperature of the solid-liquid transition – fell in the range of 222 to 223 °C. Besides, the IC50 at VEGFR2 was found to be 1.4 µM.

(Values after patent publication US8481531B2, “Bicyclic heterocyclyl derivatives as FGFR kinase inhibitors for therapeutic use” (Astex Therapeutics Ltd, priority 2009, dated 2013).)
